Test results reported in DBAASP.
Values after ≈ are worked out from the molar mass of the structure shown.

Legend:
Assay in all cases: ≥ marks a high value that may be exact or a test limit, other limits are often not marked, values filed in µg/mL are converted to µM
[1] = tested on: Salmonella enterica serovar Typhimurium
Pseudomonas aeruginosa = tested on: Pseudomonas aeruginosa
Escherichia coli UB1005 = tested on: Escherichia coli UB1005
[2] = tested on: Pseudomonas aeruginosa PAO1
Staphylococcus aureus = tested on: Staphylococcus aureus
[3] = tested on: Escherichia coli ATCC 25922
[4] = tested on: Staphylococcus aureus NCTC 8325
[5] = tested on: Candida albicans ATCC 90028
Bacillus subtilis = tested on: Bacillus subtilis
[6] = tested on: Candida albicans ATCC 2002
[7] = tested on: Staphylococcus aureus ATCC 2592
Escherichia coli = tested on: Escherichia coli
Acinetobacter baumannii = tested on: Acinetobacter baumannii
[8] = tested on: Staphylococcus aureus ATCC 25923

Compound | MIC [1] [µM] | MIC (Pseudomonas aeruginosa) [µM] | MIC [2] [µM] | MIC (Staphylococcus aureus) [µM] | MIC [3] [µM] | MIC [8] [µM] | also measured
CC[C@H](C)[C@H](NC(=O)[C@H](Cc1ccccc1)NC(=O)[C@H](CCCCN)NC(=O)[C@H](CCCCN)NC(=O)[C@H](Cc1c[nH]c2ccccc12)NC(=O)[C@@H](N)CCCCN)C(=O)N[C@@H](CCCCN)C(=O)N[C@@H](CO)C(=O)N[C@@H](CC(C)C)C(=O)N[C@H](C(=O)N[C@@H](CCCCN)C(=O)N[C@@H](CO)C(=O)N[C@@H](C)C(=O)N[C@@H](C)C(=O)N[C@@H](CCCCN)C(=O)N[C@H](C(=O)N[C@H](C(=O)N[C@H](C(=O)N[C@@H](CCCCN)C(=O)N[C@H](C(=O)N[C@@H](C)C(=O)N[C@@H](CCCCN)C(=O)N[C@@H](CCCCN)C(=O)N1CCC[C@H]1C(=O)N[C@@H](CC(C)C)C(=O)N[C@H](C(=O)N[C@H](C(N)=O)C(C)C)[C@@H](C)CC)[C@@H](C)O)C(C)C)C(C)C)[C@@H](C)O)[C@@H](C)O [KWKKFIKSLTKSAAKTVVKTAKKPLIV] | 0.986 (≈ 3 µg/mL) | 0.93 (≈ 2.83 µg/mL) | 1.31 (≈ 4 µg/mL) | > 21 |  |  | MIC (Escherichia coli UB1005): 0.329 µM (≈ 1 µg/mL)
CC[C@H](C)[C@H](NC(=O)[C@H](CO)NC(=O)CNC(=O)[C@@H](NC(=O)[C@@H](N)C(C)C)[C@@H](C)CC)C(=O)N[C@@H](CC(C)C)C(=O)NCC(=O)N[C@@H](C)C(=O)N[C@@H](CC(C)C)C(=O)N[C@@H](C)C(=O)N[C@@H](CO)C(=O)NCC(=O)N[C@@H](CC(C)C)C(=O)N1CCC[C@H]1C(=O)N[C@H](C(=O)N[C@@H](CC(C)C)C(=O)N[C@H](C(=O)N[C@@H](CO)C(=O)N[C@@H](Cc1c[nH]c2ccccc12)C(=O)N[C@H](C(=O)N[C@@H](CCCCN)C(=O)N[C@@H](CC(N)=O)C(=O)N[C@@H](CCCN=C(N)N)C(N)=O)[C@@H](C)CC)[C@@H](C)CC)[C@@H](C)O [VIGSILGALASGLPTLISWIKNR] |  |  |  |  | 25 (≈ 59.5 µg/mL) |  | MIC [4]: 6 µM (≈ 14.3 µg/mL); MIC [5]: 25 µM (≈ 59.5 µg/mL)
CC(C)[C@H](N)C(=O)N[C@@H](CCCCN)C(=O)N[C@@H](CCCN=C(N)N)C(=O)N[C@@H](Cc1ccccc1)C(=O)N[C@@H](CCCCN)C(=O)N[C@@H](CCCCN)C(=O)N[C@@H](Cc1ccccc1)C(=O)N[C@@H](Cc1ccccc1)C(=O)N[C@@H](CCCN=C(N)N)C(=O)N[C@@H](CCCCN)C(=O)N[C@@H](Cc1ccccc1)C(=O)N[C@@H](CCCCN)C(=O)N[C@@H](CCCCN)C(=O)N[C@@H](CO)C(=O)N[C@H](C(N)=O)C(C)C [VKRFKKFFRKFKKSV] |  |  |  |  | 19 (≈ 37.5 µg/mL) |  | MIC (Bacillus subtilis): ≥ 50.7 µM; MIC [6]: 4.75 µM (≈ 9.38 µg/mL); MIC [7]: ≥ 50.7 µM
CC[C@H](C)[C@H](NC(=O)[C@H](CCCN=C(N)N)NC(=O)[C@@H](NC(=O)[C@H](CCCN=C(N)N)NC(=O)[C@H](Cc1c[nH]c2ccccc12)NC(=O)[C@H](CCC(N)=O)NC(=O)[C@@H](N)C(C)C)[C@@H](C)CC)C(=O)N[C@@H](C)C(=O)N[C@H](C(=O)N[C@H](C(=O)N[C@@H](CCCN=C(N)N)C(=O)N[C@@H](C)C(=O)O)[C@@H](C)CC)C(C)C [VQWRIRIAVIRA] | 2.7 (≈ 4 µg/mL) | 30.6 (≈ 45.3 µg/mL) | 21.6 (≈ 32 µg/mL) | 15.3 (≈ 22.6 µg/mL) | 5.4 (≈ 8 µg/mL) | 5.4 (≈ 8 µg/mL) | MIC (Escherichia coli): 43.2 µM (≈ 64 µg/mL); MIC (Acinetobacter baumannii): 21.6 µM (≈ 32 µg/mL)
CC[C@H](C)[C@H](NC(=O)[C@H](CCCN=C(N)N)NC(=O)[C@H](Cc1c[nH]c2ccccc12)NC(=O)[C@H](CCC(N)=O)NC(=O)[C@@H](N)C(C)C)C(=O)N[C@@H](CCCN=C(N)N)C(=O)N[C@H](C(=O)N[C@@H](CS)C(=O)N[C@H](C(=O)N[C@H](C(=O)N[C@@H](CCCN=C(N)N)C(=O)N[C@@H](C)C(=O)O)[C@@H](C)CC)C(C)C)C(C)C [VQWRIRVCVIRA] | 21.3 (≈ 32 µg/mL) |  | 21.3 (≈ 32 µg/mL) |  | 21.3 (≈ 32 µg/mL) | 21.3 (≈ 32 µg/mL) | 
